Measured values from patent US20190125888A1, “TARGETED CONJUGATES AND PARTICLES AND FORMULATIONS THEREOF” (priority 2015, published 2019).
Read-outs that look alike come from different tables or passages of the source.

Assays:
phospho-histone H3 = experiment: Phospho-histone H3 response in NCI-H69 tumors; type: in vivo, mice
Description: Phospho-histone H3 response in NCI-H69 tumors was measured. […] At 24 hour, adjusted phospho-histone H3 response for Conjugate 6 was about 500 (fluorescence signal) and at 48 hour it was about 2300 (fluorescence signal).

[1] = Ligand charge of maytansinoid conjugates; type: physicochemical
[2] = system: NCI-H69 SCLC (small cell lung cancer) tumor cells; experiment: H69 tumor PK; type: in vivo
Description: (§1) Half-life (t1/2) of maytansinoid conjugates were measured in rat plasma and rat liver microsomes (LM). PK values of maytansinoid conjugates in NCI-H69 SCLC (small cell lung cancer) tumor cells were measured.

[3] = system: NCI-H524 (ATCC) human lung cancer cells; type: cell-based
Summary of the method: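 NCI-H524 cells (5,000/well) exposed to conjugates for 6 hours, washed, then grown a further 66 hours; ten-point threefold dilutions from 20 μM. Proliferation by CellTiter-Glo versus vehicle; IC50 by four-parameter nonlinear regression, measured with and without octreotide competition.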

Half-life in rat plasma = type: in vitro ADME; details: read-out: rat plasma t½ (converted)
Description: as §1

[4] = Half-life in rat liver microsomes; type: in vitro ADME; details: read-out: rat LM t½ (mm)
Description: as §1

human NCI-H69 SCLC = experiment: H69 xenograft efficacy study, tumor growth inhibition; type: in vivo, mice; details: for TGI % Day 11 / TGI % Day 14 / TGI % Day 18 / TGI % Day 21 / TGI % Day 25: 0.7 mg/kg once weekly for two doses
Description: Applicants assessed the activity of maytansinoid conjugates in vivo. In these experiments, the ability of conjugates to affect the growth of human NCI-H69 SCLC was tested. For the in vivo study, 8 week old female NCR nude mice were inoculated subcutaneously into the right flank with 2 million cells in 1:1 RPMI 1640 (Invitrogen, Carlsbad, Calif.)/Matrigel® (BD Biosciences, San Jose, Calif.). Tumor measurements were taken twice weekly, using vernier calipers. Tumor volume was calculated using the formula: V=0.5×width×width×length.
When tumors approached a volume of 200 mm^3, mice were randomized into four groups of ten animals. Mice were treated with vehicle control (10% propylene glycol in water for injection) and maytansinoid conjugates (10% propylene glycol in water for injection). Final tumor volumes were analyzed using with a one-way analysis of variance and Tukey multiple comparison test.

[5] = Chrom LogP of maytansinoid conjugates; type: physicochemical
[6] = Pharmacokinetics study in mouse; details: in vivo
Description: Pharmacokinetics studies in mouse were also carried out. Half-life, Cmax and AUC values of Conjugate 6 were show in Table 10.

human SSTR2 = human SSTR2 (Homo sapiens, UniProt P30874); experiment: Radioligand-receptor binding assay, [125I] somatostatin, membranes from SSTR2 expressing CHO-K1 cells
Summary of the method: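 CHO-K1 SSTR2 membranes incubated 4 h with 0.03 nM [125I] somatostatin and conjugates in a 10-point, 6-fold series from 10 uM. Bound radioligand measured after filtration and washing; IC50 by non-linear least-squares regression.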

[7] = read-out: H524 IC50 6 h, 6 hours treatment, further 66 hours incubation
[8] = read-out: H524 IC50 with 100 μM octreotide 6 h, with 100 μM octreotide competition, 6 h treatment
[9] = 1.3 mg/kg once weekly for two doses
[10] = 2 mg/kg once weekly for two doses
[11] = 1.5 mg/kg once weekly for two doses

Sequence of human SSTR2 (P30874 whole entry): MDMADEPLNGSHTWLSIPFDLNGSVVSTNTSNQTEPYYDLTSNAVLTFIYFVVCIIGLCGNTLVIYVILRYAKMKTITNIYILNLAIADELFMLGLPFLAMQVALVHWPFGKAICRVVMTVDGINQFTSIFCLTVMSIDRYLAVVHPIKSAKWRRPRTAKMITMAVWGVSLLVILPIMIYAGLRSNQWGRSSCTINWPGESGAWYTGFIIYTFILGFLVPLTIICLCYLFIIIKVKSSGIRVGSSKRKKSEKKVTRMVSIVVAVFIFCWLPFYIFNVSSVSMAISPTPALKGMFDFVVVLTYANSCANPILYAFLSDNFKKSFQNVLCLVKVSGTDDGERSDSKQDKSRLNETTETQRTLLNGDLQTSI

For `COc1cc2cc(c1Cl)N(C)C(=O)C[C@H](OC(=O)[C@H](C)N(C)C(=O)CCSSC(C)(C)[C@H](NC(=O)[C@@H]1CSSC[C@H](NC(=O)[C@H](N)Cc3ccccc3)C(=O)N[C@@H](Cc3ccc(O)cc3)C(=O)N[C@H](Cc3c[nH]c4ccccc34)C(=O)N[C@@H](CCCCN)C(=O)N[C@@H]([C@@H](C)O)C(=O)N1)C(N)=O)[C@]1(C)O[C@H]1[C@H](C)[C@@H]1C[C@@](O)(NC(=O)O1)[C@H](OC)/C=C/C=C(\C)C2` [Conjugate 6], the “adjusted phospho-histone H3 response” value (phospho-histone H3; at 24 hour) was “about 500 fluorescence signal”, the “adjusted phospho-histone H3 response” value (phospho-histone H3; at 48 hour) was “about 2300 fluorescence signal” and the Ligand charge [1] was “+2”. For the same compound, the “H69 tumor PK normalized- uM/umol/kg at 1 mpk in 10% PG” value [2] was “Ca. 0.420 uM/umol/kg”, the IC50 [3, 7] was 13 nM and the IC50 [3, 8] was 545 nM. For the same compound, the half-life (Half-life in rat plasma) was 18.2 h, the half-life [4] was 2.97 h and the “TGI % at day 33” value (human NCI-H69 SCLC; 0.7 mg/kg once weekly for three doses, day 33) was 31.9%. The “TGI % Day 11” value (human NCI-H69 SCLC) was 55%, the “TGI % Day 14” value (human NCI-H69 SCLC) was 60% and the “TGI % Day 18” value (human NCI-H69 SCLC) was 65%. For the same compound, the “TGI % Day 21” value (human NCI-H69 SCLC) was 69%, the “TGI % Day 25” value (human NCI-H69 SCLC) was 59% and the “TGI % Day 13” value (human NCI-H69 SCLC; [9]) was 69.1%. The “TGI % Day 17” value (human NCI-H69 SCLC; [9]) was 75.6%, the “TGI % Day 20” value (human NCI-H69 SCLC; [9]) was 76.8% and the “TGI % Day 24” value (human NCI-H69 SCLC; [9]) was 72.7%. For the same compound, the “TGI % Day 30” value (human NCI-H69 SCLC; [9]) was 72.1%, the “TGI % Day 13” value (human NCI-H69 SCLC; [10]) was 93.4% and the “TGI % Day 17” value (human NCI-H69 SCLC; [10]) was 96.2%. For the same compound, the “TGI % Day 20” value (human NCI-H69 SCLC; [10]) was 98.2%, the “TGI % Day 24” value (human NCI-H69 SCLC; [10]) was 99.5% and the “TGI % Day 30” value (human NCI-H69 SCLC; [10]) was 99.9%. For the same compound, the “TGI % at day 22” value (human NCI-H69 SCLC; Dose 0.63 × 3 mg/kg, total dose 1.89 mg/kg) was 47%, the “TGI % at day 22” value (human NCI-H69 SCLC; Dose 0.65 × 2 mg/kg, total dose 1.3 mg/kg) was 69% and the “TGI % at day 22” value (human NCI-H69 SCLC; Dose 1.2 × 2 mg/kg, total dose 2.4 mg/kg) was 77%. For the same compound, the “TGI % at day 22” value (human NCI-H69 SCLC; Dose 2.0 × 2 mg/kg, total dose 4.0 mg/kg) was 98%, the chromatographic logP [5] was 2.06 and the AUC(0-inf) [6] was 4.45 µM·h. The Cmax [6] was 3000 nM, the half-life ([6]; read-out: t½ (converted)) was 2.05 h and the Ki (human SSTR2) was 0.021 nM.
In the case of `COc1cc2cc(c1Cl)N(C)C(=O)C[C@H](OC(=O)[C@H](C)N(C)C(=O)CCSSC(C)(C)[C@H](NC(=O)[C@@H]1CSSC[C@H](NC(=O)[C@@H](Cc3ccccc3)NS(C)(=O)=O)C(=O)N[C@@H](Cc3ccc(O)cc3)C(=O)N[C@H](Cc3c[nH]c4ccccc34)C(=O)N[C@@H](CCCCN)C(=O)N[C@@H]([C@@H](C)O)C(=O)N1)C(N)=O)[C@]1(C)O[C@H]1[C@H](C)[C@@H]1C[C@@](O)(NC(=O)O1)[C@H](OC)/C=C/C=C(\C)C2` [Conjugate 10], the Ligand charge [1] is reported as “+1”, the “H69 tumor PK normalized- uM/umol/kg at 1 mpk in 10% PG” value [2] is reported as 0.546 uM/umol/kg and the IC50 [3, 7] is reported as 3.3 nM. For the same compound, the IC50 [3, 8] was 246 nM, the “TGI % Day 11” value (human NCI-H69 SCLC) was 48% and the “TGI % Day 14” value (human NCI-H69 SCLC) was 59%. The “TGI % Day 18” value (human NCI-H69 SCLC) was 54%, the “TGI % Day 21” value (human NCI-H69 SCLC) was 53% and the “TGI % Day 25” value (human NCI-H69 SCLC) was 42%. The “TGI % Day 13” value (human NCI-H69 SCLC; [11]) was 92.2%, the “TGI % Day 17” value (human NCI-H69 SCLC; [11]) was 95.6% and the “TGI % Day 20” value (human NCI-H69 SCLC; [11]) was 97.8%. For the same compound, the “TGI % Day 24” value (human NCI-H69 SCLC; [11]) was 99.5%, the “TGI % Day 30” value (human NCI-H69 SCLC; [11]) was 99.6% and the “TGI % at day 22” value (human NCI-H69 SCLC; Dose 0.60 × 2 mg/kg, total dose 1.20 mg/kg) was 53%. The “TGI % at day 22” value (human NCI-H69 SCLC; Dose 1.54 × 2 mg/kg, total dose 3.08 mg/kg) was 98%, the chromatographic logP [5] was 2.66 and the Ki (human SSTR2) was 0.035 nM.
With `COc1cc2cc(c1Cl)N(C)C(=O)C[C@H](OC(=O)[C@H](C)N(C)C(=O)CCSSC[C@H](NC(=O)[C@@H]1CSSC[C@H](NC(=O)[C@@H](Cc3ccccc3)NC(=O)NCc3ccc(C(F)(F)F)cc3)C(=O)N[C@@H](Cc3ccc(O)cc3)C(=O)N[C@H](Cc3c[nH]c4ccccc34)C(=O)N[C@@H](CCCCN)C(=O)N[C@@H]([C@@H](C)O)C(=O)N1)C(N)=O)[C@]1(C)O[C@H]1[C@H](C)[C@@H]1C[C@@](O)(NC(=O)O1)[C@H](OC)/C=C/C=C(\C)C2` [Conjugate 37] the Ligand charge [1] was “+1”, the IC50 [3, 7] was 3.7 nM and the IC50 [3, 8] was 93 nM. For the same compound, the chromatographic logP [5] was 3.07 and the Ki (human SSTR2) was 0.16 nM.
In the case of `COc1cc2cc(c1Cl)N(C)C(=O)C[C@H](OC(=O)[C@H](C)N(C)C(=O)CCSSC[C@H](NC(=O)[C@@H]1CSSC[C@H](NC(=O)[C@@H](Cc3ccccc3)NC(=O)Nc3cc(C(F)(F)F)cc(C(F)(F)F)c3)C(=O)N[C@@H](Cc3ccc(O)cc3)C(=O)N[C@H](Cc3c[nH]c4ccccc34)C(=O)N[C@@H](CCCCN)C(=O)N[C@@H]([C@@H](C)O)C(=O)N1)C(N)=O)[C@]1(C)O[C@H]1[C@H](C)[C@@H]1C[C@@](O)(NC(=O)O1)[C@H](OC)/C=C/C=C(\C)C2` [Conjugate 38], the Ligand charge [1] is reported as “+1”, the IC50 [3, 7] is reported as 261 nM and the IC50 [3, 8] is reported as 296 nM. The chromatographic logP [5] was 3.47 and the Ki (human SSTR2) was 5.34 nM.
With `COc1cc2cc(c1Cl)N(C)C(=O)C[C@H](OC(=O)[C@H](C)N(C)C(=O)CCSSC[C@H](NC(=O)[C@@H]1CSSC[C@H](NC(=O)[C@@H](Cc3ccccc3)NC(=O)NCCC(c3ccccc3)c3ccccc3)C(=O)N[C@@H](Cc3ccc(O)cc3)C(=O)N[C@H](Cc3c[nH]c4ccccc34)C(=O)N[C@@H](CCCCN)C(=O)N[C@@H]([C@@H](C)O)C(=O)N1)C(N)=O)[C@]1(C)O[C@H]1[C@H](C)[C@@H]1C[C@@](O)(NC(=O)O1)[C@H](OC)/C=C/C=C(\C)C2` [Conjugate 41] the Ligand charge [1] was “+1”, the IC50 [3, 7] was 41 nM and the IC50 [3, 8] was 97 nM. The chromatographic logP [5] was 3.29 and the Ki (human SSTR2) was 0.5 nM.
With `COc1cc2cc(c1Cl)N(C)C(=O)C[C@H](OC(=O)[C@H](C)N(C)C(=O)CCSSC[C@H](NC(=O)[C@@H]1CSSC[C@H](NC(=O)[C@@H](Cc3ccccc3)NC(=O)Nc3ccccc3)C(=O)N[C@@H](Cc3ccc(O)cc3)C(=O)N[C@H](Cc3c[nH]c4ccccc34)C(=O)N[C@@H](CCCCN)C(=O)N[C@@H]([C@@H](C)O)C(=O)N1)C(N)=O)[C@]1(C)O[C@H]1[C@H](C)[C@@H]1C[C@@](O)(NC(=O)O1)[C@H](OC)/C=C/C=C(\C)C2` [Conjugate 42] the Ligand charge [1] was “+1”, the IC50 [3, 7] was 1.7 nM and the IC50 [3, 8] was 115 nM. It also gave a chromatographic logP [5] of 2.87 and a Ki (human SSTR2) of 0.042 nM.
With `COc1cc2cc(c1Cl)N(C)C(=O)C[C@H](OC(=O)[C@H](C)N(C)C(=O)CCSSC[C@H](NC(=O)[C@@H]1CSSC[C@H](NC(=O)[C@H](N)Cc3ccccc3)C(=O)N[C@@H](Cc3ccc(O)cc3)C(=O)N[C@H](Cc3c[nH]c4ccccc34)C(=O)N[C@@H](CCCCNC(=O)NCCCCCCN)C(=O)N[C@@H]([C@@H](C)O)C(=O)N1)C(N)=O)[C@]1(C)O[C@H]1[C@H](C)[C@@H]1C[C@@](O)(NC(=O)O1)[C@H](OC)/C=C/C=C(\C)C2` [Conjugate 56] the Ligand charge [1] was “+2”, the IC50 [3, 7] was 246 nM and the IC50 [3, 8] was 361 nM. The chromatographic logP [5] was 1.92 and the Ki (human SSTR2) was 1900 nM.
For `COc1cc2cc(c1Cl)N(C)C(=O)C[C@H](OC(=O)[C@H](C)N(C)C(=O)CCSSC(C)(C)[C@H](NC(=O)[C@@H]1CSSC[C@H](NC(=O)[C@H](N)Cc3ccccc3)C(=O)N[C@@H](Cc3ccc(O)cc3)C(=O)N[C@H](Cc3c[nH]c4ccccc34)C(=O)N[C@@H](CCCCNC(=O)NCCCCCCN)C(=O)N[C@@H]([C@@H](C)O)C(=O)N1)C(N)=O)[C@]1(C)O[C@H]1[C@H](C)[C@@H]1C[C@@](O)(NC(=O)O1)[C@H](OC)/C=C/C=C(\C)C2` [Conjugate 57], the Ligand charge [1] was “+2”, the IC50 [3, 7] was 408 nM and the IC50 [3, 8] was 652 nM. For the same compound, the chromatographic logP [5] was 2.12 and the Ki (human SSTR2) was 69 nM.
